Literature values in patent US9056899B2 (priority 2008, dated 2015).
In brackets after ≈: the same amount, converted by molar mass. Read-outs that look alike come from different tables or passages of the source.

Experiments:
Conditions in all cases: cited from earlier work
BW25113 gene knockouts = tested on: BW25113 gene knockouts
[1] = tested on: BW25113 and gene knockouts
[2] = tested on: BW25113 and gene knockouts; remark: listed apart in the source
[3] = tested on: BW25113 and gene knockouts; remark: listed apart in the source

CN[C@H](CC(C)C)C(=O)N[C@H]1C(=O)N[C@@H](CC(N)=O)C(=O)N[C@H]2C(=O)N[C@H]3C(=O)N[C@H](C(=O)N[C@H](C(=O)O)c4cc(O)cc(O)c4-c4cc3ccc4O)[C@H](O)c3ccc(c(Cl)c3)Oc3cc2cc(c3O[C@@H]2O[C@H](CO)[C@@H](O)[C@H](O)[C@H]2O[C@H]2C[C@](C)(N)[C@H](O)[C@H](C)O2)Oc2ccc(cc2Cl)[C@H]1O [Vancomycin]
MIC E test (BW25113 gene knockouts; lptB knockout): 2.0 µg/mL (≈ 1.38 µM) | MIC E test (BW25113 gene knockouts; pal knockout): 96 µg/mL (≈ 66.2 µM) | MIC E test (BW25113 gene knockouts; smpA knockout): 70 µg/mL (≈ 48.3 µM) | MIC E test (BW25113 gene knockouts; surA knockout): 4 µg/mL (≈ 2.76 µM) | MIC Plating ([1]; BW25113 starting strain): 500 µg/mL (≈ 345 µM) | MIC Plating ([1]; dksA knockout): 125 µg/mL (≈ 86.3 µM) | MIC Plating ([1]; elaD knockout): 150 µg/mL (≈ 104 µM) | MIC Plating ([1]; envC knockout): 150 µg/mL (≈ 104 µM) | MIC Plating ([1]; envZ knockout): 150 µg/mL (≈ 104 µM) | MIC Plating ([1]; fepC knockout): 150 µg/mL (≈ 104 µM) | MIC Plating ([1]; hns knockout): 150 µg/mL (≈ 104 µM) | MIC Plating ([1]; hscB knockout): 150 µg/mL (≈ 104 µM) | MIC Plating ([1]; lptB knockout): 150 µg/mL (≈ 104 µM) | MIC Plating ([1]; msbB knockout): 150 µg/mL (≈ 104 µM) | MIC Plating ([1]; oxyR knockout): 150 µg/mL (≈ 104 µM) | MIC Plating ([1]; pal knockout): 100 µg/mL (≈ 69 µM) | MIC Plating ([1]; pgmB knockout): 100 µg/mL (≈ 69 µM) | MIC Plating ([1]; proW knockout): 150 µg/mL (≈ 104 µM) | MIC Plating ([1]; rimK knockout): 150 µg/mL (≈ 104 µM) | MIC Plating ([1]; rpmJ knockout): 150 µg/mL (≈ 104 µM) | MIC Plating ([1]; rrmJ knockout): 150 µg/mL (≈ 104 µM) | MIC Plating ([1]; skp knockout): 75 µg/mL (≈ 51.8 µM) | MIC Plating ([1]; smpA knockout): 100 µg/mL (≈ 69 µM) | MIC Plating ([1]; surA knockout): 8 µg/mL (≈ 5.52 µM) | MIC Plating ([1]; tonB knockout): 125 µg/mL (≈ 86.3 µM) | MIC Plating ([1]; tusC knockout): 150 µg/mL (≈ 104 µM) | MIC Plating ([1]; tusD knockout): 150 µg/mL (≈ 104 µM) | MIC Plating ([1]; xapR knockout): 100 µg/mL (≈ 69 µM) | MIC Plating ([1]; ybgF knockout): 100 µg/mL (≈ 69 µM) | MIC Plating ([1]; ycbR knockout): 150 µg/mL (≈ 104 µM) | MIC Plating ([1]; yciM knockout): 100 µg/mL (≈ 69 µM) | MIC Plating ([1]; ydfP knockout): 150 µg/mL (≈ 104 µM) | MIC Plating ([1]; ydjI knockout): 100 µg/mL (≈ 69 µM) | MIC Plating ([1]; yfgC knockout): 150 µg/mL (≈ 104 µM) | MIC Plating ([1]; yfgL knockout): 150 µg/mL (≈ 104 µM) | MIC Plating ([1]; yhdP knockout): 125 µg/mL (≈ 86.3 µM)

CC1(C)S[C@@H]2[C@H](NC(=O)[C@H](N)c3ccccc3)C(=O)N2[C@H]1C(=O)O [Ampicillin]
MIC E test ([2]; BW25113 starting strain): 5.0 µg/mL (≈ 14.3 µM) | MIC E test [2]: 1.5 µg/mL (≈ 4.29 µM) | MIC E test ([2]; dacA knockout): 1.5 µg/mL (≈ 4.29 µM) | MIC E test ([2]; dapF knockout): 2.0 µg/mL (≈ 5.72 µM) | MIC E test ([2]; pal knockout): 2.0 µg/mL (≈ 5.72 µM) | MIC E test ([2]; rplA knockout): 2.0 µg/mL (≈ 5.72 µM) | MIC E test ([2]; tatC knockout): 3.0 µg/mL (≈ 8.59 µM) | MIC E test ([2]; tolC knockout): 1.0 µg/mL (≈ 2.86 µM) | MIC Plating ([3]; BW25113 starting strain): 6.0 µg/mL (≈ 17.2 µM) | MIC Plating ([3]; JW5115 knockout): 2.0 µg/mL (≈ 5.72 µM) | MIC Plating ([3]; acrA knockout): 1.5 µg/mL (≈ 4.29 µM) | MIC Plating ([3]; acrB knockout): 2.0 µg/mL (≈ 5.72 µM) | MIC Plating ([3]; atpA knockout): 2.5 µg/mL (≈ 7.15 µM) | MIC Plating [3]: 1.5 µg/mL (≈ 4.29 µM) | MIC Plating ([3]; dacA knockout): 1.5 µg/mL (≈ 4.29 µM) | MIC Plating ([3]; dapF knockout): 1.0 µg/mL (≈ 2.86 µM) | MIC Plating ([3]; dcd knockout): 2.5 µg/mL (≈ 7.15 µM) | MIC Plating ([3]; ddlB knockout): 1.0 µg/mL (≈ 2.86 µM) | MIC Plating ([3]; dedD knockout): 2.0 µg/mL (≈ 5.72 µM) | MIC Plating ([3]; deoT knockout): 2.0 µg/mL (≈ 5.72 µM) | MIC Plating ([3]; dksA knockout): 2.0 µg/mL (≈ 5.72 µM) | MIC Plating ([3]; emtA knockout): 2.0 µg/mL (≈ 5.72 µM) | MIC Plating ([3]; envC knockout): 1.5 µg/mL (≈ 4.29 µM) | MIC Plating ([3]; fkpB knockout): 2.5 µg/mL (≈ 7.15 µM) | MIC Plating ([3]; gpmM knockout): 1.5 µg/mL (≈ 4.29 µM) | MIC Plating ([3]; hscA knockout): 2.0 µg/mL (≈ 5.72 µM) | MIC Plating ([3]; hscB knockout): 2.5 µg/mL (≈ 7.15 µM) | MIC Plating ([3]; lptB knockout): 2.0 µg/mL (≈ 5.72 µM) | MIC Plating ([3]; mrcB knockout): 2.0 µg/mL (≈ 5.72 µM) | MIC Plating ([3]; pal knockout): 1.5 µg/mL (≈ 4.29 µM) | MIC Plating ([3]; pgmB knockout): 1.5 µg/mL (≈ 4.29 µM) | MIC Plating ([3]; phoP knockout): 2.0 µg/mL (≈ 5.72 µM) | MIC Plating ([3]; qmcA knockout): 2.5 µg/mL (≈ 7.15 µM) | MIC Plating ([3]; rimK knockout): 2.0 µg/mL (≈ 5.72 µM) | MIC Plating ([3]; rplA knockout): 2.0 µg/mL (≈ 5.72 µM) | MIC Plating ([3]; rpmF knockout): 1.5 µg/mL (≈ 4.29 µM) | MIC Plating ([3]; rpsF knockout): 2.0 µg/mL (≈ 5.72 µM) | MIC Plating ([3]; rrmJ knockout): 1.5 µg/mL (≈ 4.29 µM) | MIC Plating ([3]; skp knockout): 2.0 µg/mL (≈ 5.72 µM) | MIC Plating ([3]; sufI knockout): 2.0 µg/mL (≈ 5.72 µM) | MIC Plating ([3]; surA knockout): 2.0 µg/mL (≈ 5.72 µM) | MIC Plating ([3]; tatC knockout): 2.0 µg/mL (≈ 5.72 µM) | MIC Plating ([3]; tolC knockout): 2.0 µg/mL (≈ 5.72 µM) | MIC Plating ([3]; tolR knockout): 2.0 µg/mL (≈ 5.72 µM) | MIC Plating ([3]; ubiG knockout): 2.0 µg/mL (≈ 5.72 µM) | MIC Plating ([3]; xapR knockout): 1.5 µg/mL (≈ 4.29 µM) | MIC Plating ([3]; ybeD knockout): 2.0 µg/mL (≈ 5.72 µM) | MIC Plating ([3]; ybeY knockout): 2.0 µg/mL (≈ 5.72 µM) | MIC Plating ([3]; ybgF knockout): 1.5 µg/mL (≈ 4.29 µM) | MIC Plating ([3]; ybhT knockout): 2.0 µg/mL (≈ 5.72 µM) | MIC Plating ([3]; yciM knockout): 1.5 µg/mL (≈ 4.29 µM) | MIC Plating ([3]; yfgC knockout): 1.5 µg/mL (≈ 4.29 µM) | MIC Plating ([3]; yfgL knockout): 2.0 µg/mL (≈ 5.72 µM) | MIC Plating ([3]; ygcO knockout): 2.0 µg/mL (≈ 5.72 µM) | MIC Plating ([3]; yjjY knockout): 1.5 µg/mL (≈ 4.29 µM)
